Source: PubChem BioAssay AID330 (DTP/NCI, 2004)
Where “and” joins values, the source holds several entries; their conditions need not be identical. Equal values may be shown once. Toxic doses and inconclusive results are not listed. Square brackets hold non-standard residues; d marks the D form. Peptide text beside a SMILES is read from it. * marks the point of attachment. Nle = CCCC[CH](N)C(=O)O; Cbz = O=C(OCc1ccccc1)*

System: P388 leukemia ip, CD2F1 mice, survival T/C
Experiment: NCI In Vivo Anticancer Drug Screen. Data for tumor model P388 Leukemia (intraperitoneal) in CD2F1 (CDF1) mice
Conditions: endpoint: median survival time, higher = longer survival
Method in brief: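 Mice carrying the transplanted tumor received test compound or vehicle. Survival was recorded in each group, and the value is the treated-group measurement divided by that of the vehicle-treated control group.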

[1] = dose: 12.5 mg/kg/injection, schedule: Q01DX005 (ip), vehicle: Klucel (hydroxypropylcellulose) (HPC)
[2] = dose: 25.0 mg/kg/injection, schedule: Q01DX005 (ip), vehicle: Klucel (hydroxypropylcellulose) (HPC)
[3] = dose: 50.0 mg/kg/injection, schedule: Q01DX005 (ip), vehicle: Klucel (hydroxypropylcellulose) (HPC)
[4] = dose: 12.5 mg/kg/injection, schedule: Q01DX009 (ip), vehicle: saline
[5] = dose: 25.0 mg/kg/injection, schedule: Q01DX009 (ip), vehicle: saline
[6] = dose: 50.0 mg/kg/injection, schedule: Q01DX009 (ip), vehicle: saline
[7] = dose: 100.0 mg/kg/injection, schedule: Q01DX009 (ip), vehicle: saline
[8] = dose: 50.0 mg/kg/injection, schedule: Q01DX009 (ip), vehicle: saline with Tween-80
[9] = dose: 100.0 mg/kg/injection, schedule: Q01DX009 (ip), vehicle: saline with Tween-80
[10] = dose: 200.0 mg/kg/injection, schedule: Q01DX009 (ip), vehicle: saline with Tween-80
[11] = dose: 60.0 mg/kg/injection, schedule: Q01DX005 (ip), vehicle: Klucel (hydroxypropylcellulose) (HPC)
[12] = dose: 120.0 mg/kg/injection, schedule: Q01DX005 (ip), vehicle: Klucel (hydroxypropylcellulose) (HPC)
[13] = dose: 240.0 mg/kg/injection, schedule: Q01DX005 (ip), vehicle: Klucel (hydroxypropylcellulose) (HPC)

Compound: CSc1nccn2c(C)nnc12
- T/C (dose: 100.0 mg/kg/injection, schedule: Q01DX001 (ip), vehicle: suspension in saline): 92 % of control
- T/C (dose: 200.0 mg/kg/injection, schedule: Q01DX001 (ip), vehicle: suspension in saline): 100 % of control

Compound: Cc1cc(S(=O)(=O)O)ccc1N=c1ccc2c(-c3ccccc3C(=O)O)c3ccc(Nc4ccccc4C)cc3oc-2c1
- T/C (dose: 50.0 mg/kg/injection, schedule: Q01DX005 (ip), vehicle: saline): 88 % of control
- T/C (dose: 100.0 mg/kg/injection, schedule: Q01DX005 (ip), vehicle: saline): 105 % of control
- T/C (dose: 200.0 mg/kg/injection, schedule: Q01DX005 (ip), vehicle: saline): 91 % of control

Compound: CN1CCN=C1c1ccc(NC(=O)c2ccc(C(=O)Nc3ccc(C4=NCCN4C)cc3)c(N)c2)cc1
- T/C (dose: 1.32 mg/kg/injection, schedule: Q01DX009 (ip), vehicle: saline): 120 % of control
- T/C (dose: 3.0 mg/kg/injection, schedule: Q01DX009 (ip), vehicle: saline): 150 % of control
- T/C (dose: 5.0 mg/kg/injection, schedule: Q04DX003 (ip), vehicle: saline with Tween-80): 95 % of control
- T/C (dose: 10.0 mg/kg/injection, schedule: Q04DX003 (ip), vehicle: saline with Tween-80): 95 % of control
- T/C (dose: 20.0 mg/kg/injection, schedule: Q04DX003 (ip), vehicle: saline with Tween-80): 90 % of control

Compound: CCNC(=O)N(Cc1ccccc1)Cc1ccccc1
- T/C (dose: 12.5 mg/kg/injection, schedule: Q01DX009 (ip), vehicle: other): 114 % of control
- T/C (dose: 25.0 mg/kg/injection, schedule: Q01DX009 (ip), vehicle: other): 112 % of control
- T/C (dose: 50.0 mg/kg/injection, schedule: Q01DX009 (ip), vehicle: other): 104 % of control
- T/C (dose: 100.0 mg/kg/injection, schedule: Q01DX009 (ip), vehicle: other): 118 % of control

Compound: Cc1cc(N/N=C/c2ccnc3ccccc23)c2cc3c(cc2n1)OCO3
- T/C [1]: 90 % of control and 93 % of control
- T/C [2]: 100 % of control and 105 % of control
- T/C [3]: 103 % of control and 108 % of control

Compound: NC(N)=N/N=C/C=N/N=C(N)N
- T/C (dose: 6.25 mg/kg/injection, schedule: Q01DX009 (ip), vehicle: saline): 118 % of control
- T/C (dose: 6.25 mg/kg/injection, schedule: Q04DX003 (ip), vehicle: saline): 100 % of control
- T/C [4]: 100 % of control
- T/C [5]: 95 % of control and 100 % of control
- T/C (dose: 25.0 mg/kg/injection, schedule: Q04DX003 (ip), vehicle: saline): 90 % of control and 100 % of control
- T/C [6]: 86 % of control and 100 % of control
- T/C (dose: 50.0 mg/kg/injection, schedule: Q04DX003 (ip), vehicle: saline): 100 % of control
- T/C [7]: 86 % of control
- T/C (dose: 100.0 mg/kg/injection, schedule: Q04DX003 (ip), vehicle: saline): 95 % of control and 100 % of control

Compound: N#CN=CN(Cc1ccccc1)Cc1ccccc1
- T/C [8]: 101 % of control
- T/C [9]: 96 % of control
- T/C [10]: 93 % of control

Compound: CCC1N=C(N)N=C(N)N1c1ccc(Cl)c(Cl)c1 (stereo unspecified)
- T/C (dose: 3.12 mg/kg/injection, schedule: Q01DX005 (ip), vehicle: Klucel (hydroxypropylcellulose) (HPC)): 104 % of control and 96 % of control
- T/C (dose: 6.25 mg/kg/injection, schedule: Q01DX005 (ip), vehicle: Klucel (hydroxypropylcellulose) (HPC)): 102 % of control and 105 % of control and 107 % of control
- T/C [1]: 113 % of control and 114 % of control and 97 % of control
- T/C [2]: 111 % of control and 114 % of control

Compound: CC(=O)NC(=O)NC(C)=O
- T/C (dose: 100.0 mg/kg/injection, schedule: Q01DX001 (ip), vehicle: methylcellulose (MC)): 100 % of control
- T/C (dose: 200.0 mg/kg/injection, schedule: Q01DX001 (ip), vehicle: methylcellulose (MC)): 108 % of control
- T/C (dose: 400.0 mg/kg/injection, schedule: Q01DX001 (ip), vehicle: methylcellulose (MC)): 100 % of control

Compound: O=C1Nc2ccccc2C1(N1CCCCC1)N1CCCCC1
- T/C [4]: 99 % of control
- T/C [5]: 90 % of control
- T/C [8]: 101 % of control
- T/C [6]: 92 % of control
- T/C [10]: 86 % of control

Compound: COc1ccc2cc1CCNC(=O)C1CCCN1C(=O)C1NCCC1O2 (stereo unspecified)
- T/C (dose: 20.0 mg/kg/injection, schedule: Q01DX005 (ip), vehicle: Klucel (hydroxypropylcellulose) (HPC)): 92 % of control
- T/C (dose: 40.0 mg/kg/injection, schedule: Q01DX005 (ip), vehicle: Klucel (hydroxypropylcellulose) (HPC)): 104 % of control
- T/C (dose: 80.0 mg/kg/injection, schedule: Q01DX005 (ip), vehicle: Klucel (hydroxypropylcellulose) (HPC)): 107 % of control

Compound: CCOC(=O)N1c2ccccc2C(c2ccccc2)=NC1(C)C#N (stereo unspecified)
- T/C (dose: 50.0 mg/kg/injection, schedule: Q01DX005 (ip), vehicle: saline with Tween-80): 97 % of control
- T/C (dose: 100.0 mg/kg/injection, schedule: Q01DX005 (ip), vehicle: saline with Tween-80): 99 % of control
- T/C (dose: 200.0 mg/kg/injection, schedule: Q01DX005 (ip), vehicle: saline with Tween-80): 99 % of control

Compound: Cc1cc(NCCCCCCNc2cc(C)nc3ccc(N)cc23)c2cc(N)ccc2n1
- T/C (dose: 75.0 mg/kg/injection, schedule: Q04DX003 (ip), vehicle: alcohol): 177 % of control
- T/C (dose: 150.0 mg/kg/injection, schedule: Q04DX003 (ip), vehicle: alcohol): 186 % of control
- T/C (dose: 300.0 mg/kg/injection, schedule: Q04DX003 (ip), vehicle: alcohol): 190 % of control

Compound: CC1(C)OCC(C2OC(C)(C)OC2C(O)c2ccco2)O1 (stereo unspecified)
- T/C (dose: 12.5 mg/kg/injection, schedule: Q01DX009 (ip), vehicle: distilled water + Tween-80): 106 % of control and 100 % of control
- T/C (dose: 25.0 mg/kg/injection, schedule: Q01DX009 (ip), vehicle: distilled water + Tween-80): 115 % of control and 117 % of control
- T/C (dose: 50.0 mg/kg/injection, schedule: Q01DX009 (ip), vehicle: distilled water + Tween-80): 105 % of control and 118 % of control
- T/C (dose: 100.0 mg/kg/injection, schedule: Q01DX009 (ip), vehicle: distilled water + Tween-80): 118 % of control and 115 % of control
- T/C (dose: 200.0 mg/kg/injection, schedule: Q01DX009 (ip), vehicle: distilled water + Tween-80): 115 % of control

Compound: C=C1C(=O)O[C@H]2CC3=CCC[C@H](C)[C@@]3(C)C[C@@H]12
- T/C (dose: 2.25 mg/kg/injection, schedule: Q01DX005 (ip), vehicle: Klucel (hydroxypropylcellulose) (HPC)): 100 % of control
- T/C (dose: 4.5 mg/kg/injection, schedule: Q01DX005 (ip), vehicle: Klucel (hydroxypropylcellulose) (HPC)): 96 % of control
- T/C (dose: 9.0 mg/kg/injection, schedule: Q01DX005 (ip), vehicle: Klucel (hydroxypropylcellulose) (HPC)): 99 % of control
- T/C (dose: 18.0 mg/kg/injection, schedule: Q01DX005 (ip), vehicle: Klucel (hydroxypropylcellulose) (HPC)): 101 % of control
- T/C (dose: 36.0 mg/kg/injection, schedule: Q01DX005 (ip), vehicle: Klucel (hydroxypropylcellulose) (HPC)): 99 % of control

Compound: CCCCC(NC(=O)OCc1ccccc1)C(=O)NC(C(=O)O)C(C)C (stereo unspecified) (Cbz-[Nle]-Val-OH; configuration not given here)
- T/C [3]: 99 % of control
- T/C (dose: 100.0 mg/kg/injection, schedule: Q01DX005 (ip), vehicle: Klucel (hydroxypropylcellulose) (HPC)): 111 % of control
- T/C (dose: 200.0 mg/kg/injection, schedule: Q01DX005 (ip), vehicle: Klucel (hydroxypropylcellulose) (HPC)): 104 % of control

Compound: COCCCn1c(-c2cc(OC)c(OC)c(OC)c2)nn2c(=O)c3ccccc3nc2c1=O
- T/C [6]: 102 % of control
- T/C [7]: 107 % of control
- T/C (dose: 200.0 mg/kg/injection, schedule: Q01DX009 (ip), vehicle: saline): 101 % of control

Compound: CC1(C)OC(C)(C)C(=N\O)/C1=N/N
- T/C [11]: 102 % of control
- T/C [12]: 102 % of control
- T/C [13]: 106 % of control

Compound: COc1ccc2c3c([nH]c2c1)C1CC2C(CC(O)C(OC)C2C(=O)O)CN1CC3 (stereo unspecified)
- T/C [11]: 100 % of control
- T/C [12]: 100 % of control
- T/C [13]: 106 % of control

Compound: CCCCCCCCCCCC(=O)N(CCOC(=O)c1ccccc1)CCc1ccccc1
- T/C [8]: 109 % of control
- T/C [9]: 109 % of control
- T/C [10]: 116 % of control

Compound: CCOC(=O)C(C(=O)OCC)=C1C(=O)Nc2ccccc21
- T/C (dose: 100.0 mg/kg/injection, schedule: Q04DX002 (ip), vehicle: Klucel (hydroxypropylcellulose) (HPC)): 106 % of control
- T/C (dose: 200.0 mg/kg/injection, schedule: Q04DX002 (ip), vehicle: Klucel (hydroxypropylcellulose) (HPC)): 106 % of control
- T/C (dose: 400.0 mg/kg/injection, schedule: Q04DX002 (ip), vehicle: Klucel (hydroxypropylcellulose) (HPC)): 109 % of control

Compound: COc1cccc(/C=C2\CCc3ccccc3C2=O)c1
- T/C (dose: 50.0 mg/kg/injection, schedule: Q01DX009 (ip), vehicle: Klucel (hydroxypropylcellulose) (HPC)): 100 % of control
- T/C (dose: 100.0 mg/kg/injection, schedule: Q01DX009 (ip), vehicle: Klucel (hydroxypropylcellulose) (HPC)): 99 % of control
- T/C (dose: 200.0 mg/kg/injection, schedule: Q01DX009 (ip), vehicle: Klucel (hydroxypropylcellulose) (HPC)): 106 % of control
